From patent US20220348595A1, “COMPOUNDS AND METHODS FOR THE TARGETED DEGRADATION OF ESTROGEN RECEPTORS” (Endotarget Inc., priority 2021, published 2022)

Experiments:
Format in all cases: cell-based
[1] = tested on: MCF-7 breast cancer cells; test: MCF-7 proliferation / cell viability assay; conditions: Homo sapiens, MCF7; MCF-7 proliferation with 0.1 nM 17-beta estradiol; read-out: IC50 (anti-proliferation)
Outline: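 Survival ratio, with vehicle (DMSO) as 100%, was derived from Coulter-counted viable cell numbers. Cells were grown in 5% FBS DMEM and dosed for 5 days across six concentrations between 10^−10 M and 10^−5 M.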

ER = molecular target: T1, ER (Homo sapiens, UniProt P03372); test: ER antagonism (T47D ERE luciferase), T47d-kb-Luc cells; conditions: read-out: IC50 (ER antagonistm)
T1 construct: endogenous in cells; host or cells: T47d-kb-Luc (T47D stably transfected with a luciferase reporter gene only)
T1 sequence (P03372 1-595): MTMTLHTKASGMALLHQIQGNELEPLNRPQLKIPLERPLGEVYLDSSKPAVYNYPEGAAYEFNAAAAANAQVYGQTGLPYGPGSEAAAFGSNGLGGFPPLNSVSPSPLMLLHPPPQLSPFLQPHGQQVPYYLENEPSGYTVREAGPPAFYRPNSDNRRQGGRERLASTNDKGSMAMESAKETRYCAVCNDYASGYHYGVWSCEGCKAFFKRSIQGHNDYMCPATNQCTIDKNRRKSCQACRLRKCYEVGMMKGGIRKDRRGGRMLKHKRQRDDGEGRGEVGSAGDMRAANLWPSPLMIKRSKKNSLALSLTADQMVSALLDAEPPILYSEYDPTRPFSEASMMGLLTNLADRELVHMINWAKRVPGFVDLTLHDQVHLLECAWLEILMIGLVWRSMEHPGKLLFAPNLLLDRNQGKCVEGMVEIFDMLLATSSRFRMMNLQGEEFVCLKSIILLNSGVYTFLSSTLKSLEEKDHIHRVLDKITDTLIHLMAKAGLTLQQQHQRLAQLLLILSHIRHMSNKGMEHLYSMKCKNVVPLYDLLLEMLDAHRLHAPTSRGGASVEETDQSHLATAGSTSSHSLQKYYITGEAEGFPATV
Outline: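 Five sample concentrations, each in quadruplicate and repeated in at least three experiments, were tested for blocking of estradiol activity. Values were expressed relative to the estradiol control. The cell system was the T47d-kb-Luc stable breast cancer line.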

ERα = molecular target: T2, ERα (Homo sapiens, UniProt P03372); test: ER degradation in MCF-7 cells (Western blot); conditions: for DC50: ER degradation, 24 hours; for Dmax: MCF7, Maximal ER degradation, read-out: Dmax
T2 construct: endogenous in cells; host or cells: MCF-7
T2 sequence (P03372 1-595): T1 sequence (P03372 1-595)
Outline: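 ERα levels assessed by Western blot (50 μg lysate protein, infrared scanner) after 24-hour exposure of MCF-7 cells to varied compound concentrations. Values reported as DC50, the concentration halving ER expression, and Dmax, the maximal ER reduction achieved across tested concentrations.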

Row | SMILES | IC50 [1] [µM] | IC50 (ER) [µM] | DC50 (ERα) [µM] | Dmax (ERα) [%]
1 | CC/C(=C(/c1ccc(OCCN2CCN(C(=O)N3CCN(c4ccc5c(c4)CN(C4CCC(=O)NC4=O)C5=O)CC3)CC2)cc1)c1ccc(B(O)O)cc1)c1ccccc1 (stereo not drawn) [Compound 83, (Z)-(4-(1-(4-(2-(4-(4-(2-(2,6-dioxopiperidin-3-yl)-1-oxoisoindolin-5-yl)piperazine-1-carbonyl)piperazin-1-yl)ethoxy)phenyl)-2-phenylbut-1-en-1-yl)phenyl)boronic acid] | < 0.01 | < 0.01 | < 0.01 | > 90
2 | CC/C(=C(/c1ccc(B(O)O)cc1)c1ccc(N2CCN(CCN3CCN(c4ccc5c(c4)C(=O)N(C4CCC(=O)NC4=O)C5=O)CC3)CC2)cc1)c1ccccc1 (stereo not drawn) [Compound 60, (E)-(4-(1-(4-(4-(2-(4-(2-(2,6-dioxopiperidin-3-yl)-1,3-dioxoisoindolin-5-yl)piperazin-1-yl)ethyl)piperazin-1-yl)phenyl)-2-phenylbut-1-en-1-yl)phenyl)boronic acid] | 0.01 to 0.05 | 0.01 to 0.05 | 0.01 to 0.05 | > 90
3 | CC/C(=C(\c1ccc(OCCN2CCC(CN3CCN(c4ccc5c(c4)CN([C@@H]4CCC(=O)NC4=O)C5=O)CC3)CC2)cc1)c1ccc(B(O)O)cc1)c1ccccc1 [Compound 76] | < 0.01 | < 0.01 | < 0.01 | > 90
4 | CC/C(=C(\c1ccc(OCCN2CCN(C(=O)N3CCN(c4ccc5c(c4)CN(C4CCC(=O)NC4=O)C5=O)CC3)CC2)cc1)c1ccc(B(O)O)cc1)c1ccccc1 (stereo not drawn) [Compound 86, (E)-(4-(1-(4-(2-(4-(4-(2-(2,6-dioxopiperidin-3-yl)-1-oxoisoindolin-5-yl)piperazine-1-carbonyl)piperazin-1-yl)ethoxy)phenyl)-2-phenylbut-1-en-1-yl)phenyl)boronic acid] | < 0.01 | < 0.01 | < 0.01 | > 90
5 | CC/C(=C(/c1ccc(O)cc1)c1ccc(N2CCN(C(=O)N3CCC(CN4CCN(c5ccc6c(c5)CN(C5CCC(=O)NC5=O)C6=O)CC4)CC3)CC2)cc1)c1ccccc1 (stereo not drawn) [Compound 115, (Z)-3-(5-(4-((1-(4-(4-(1-(4-hydroxyphenyl)-2-phenylbut-1-en-1-yl)phenyl)piperazine-1-carbonyl)piperidin-4-yl)methyl)piperazin-1-yl)-1-oxoisoindolin-2-yl)piperidine-2,6-dione] | < 0.01 | < 0.01 | < 0.01 | > 90
6 | CC/C(=C(/c1ccc(O)cc1)c1ccc(OCCN2CCN(C(=O)N3CCN(c4ccc5c(c4)CN([C@H]4CCC(=O)NC4=O)C5=O)CC3)CC2)cc1)c1ccccc1 [Compound 81, (S,E)-3-(5-(4-(4-(2-(4-(1-(4-hydroxyphenyl)-2-phenylbut-1-en-1-yl)phenoxy)ethyl)piperazine-1-carbonyl)piperazin-1-yl)-1-oxoisoindolin-2-yl)piperidine-2,6-dione] | < 0.01 | < 0.01 | < 0.01 | > 90
7 | CC/C(=C(/c1ccc(O)cc1)c1ccc(OCCN2CCN(C(=O)N3CCN(c4ccc5c(c4)CN([C@@H]4CCC(=O)NC4=O)C5=O)CC3)CC2)cc1)c1ccccc1 [Compound 82] | < 0.01 | < 0.01 | < 0.01 | > 90
8 | CC/C(=C(\c1ccc(OCCN2CCC(N3CCN(c4ccc5c(c4)C(=O)N(C4CCC(=O)NC4=O)C5=O)CC3)CC2)cc1)c1ccc(B(O)O)cc1)c1ccccc1 (stereo not drawn) [Compound 32, (E)-(4-(1-(4-(2-(4-(4-(2-(2,6-dioxopiperidin-3-yl)-1,3-dioxoisoindolin-5-yl)piperazin-1-yl)piperidin-1-yl)ethoxy)phenyl)-2-phenylbut-1-en-1-yl)phenyl)boronic acid] | > 0.05 | > 0.05 | 0.01 to 0.05 | > 90
9 | CC/C(=C(/c1ccc(B(O)O)cc1)c1ccc(C2CCN(CCCN3CCN(c4ccc5c(c4)C(=O)N(C4CCC(=O)NC4=O)C5=O)CC3)CC2)cc1)c1ccccc1 (stereo not drawn) [Compound 48, (E)-(4-(1-(4-(1-(3-(4-(2-(2,6-dioxopiperidin-3-yl)-1,3-dioxoisoindolin-5-yl)piperazin-1-yl)propyl)piperidin-4-yl)phenyl)-2-phenylbut-1-en-1-yl)phenyl)boronic acid] | 0.01 to 0.05 | 0.01 to 0.05 | < 0.01 | > 90
10 | CC/C(=C(\c1ccc(OCCCCCN2CCN(c3ccc4c(c3)CN(C3CCC(=O)NC3=O)C4=O)CC2)cc1)c1ccc(B(O)O)cc1)c1ccccc1 (stereo not drawn) [Compound 36] | 0.01 to 0.05 | 0.01 to 0.05 | 0.01 to 0.05 | > 90
11 | CC/C(=C(/c1ccc(OCCN2CCN(CC3CCN(c4ccc5c(c4)CN(C4CCC(=O)NC4=O)C5=O)CC3)CC2)cc1)c1ccc(B(O)O)cc1)c1ccccc1 (stereo not drawn) [Compound 21, (Z)-(4-(1-(4-(2-(4-((1-(2-(2,6-dioxopiperidin-3-yl)-1-oxoisoindolin-5-yl)piperidin-4-yl)methyl)piperazin-1-yl)ethoxy)phenyl)-2-phenylbut-1-en-1-yl)phenyl)boronic acid] | < 0.01 | < 0.01 | < 0.01 | > 90
12 | CC/C(=C(\c1ccc(B(O)O)cc1)c1ccc(N2CCN(C(=O)N3CCN(c4ccc5c(c4)CN([C@H]4CCC(=O)NC4=O)C5=O)CC3)CC2)cc1)c1ccccc1 [Compound 104, (S,Z)-(4-(1-(4-(4-(4-(2-(2,6-dioxopiperidin-3-yl)-1-oxoisoindolin-5-yl)piperazine-1-carbonyl)piperazin-1-yl)phenyl)-2-phenylbut-1-en-1-yl)phenyl)boronic acid] | < 0.01 | < 0.01 | < 0.01 | > 90
13 | CC/C(=C(/c1ccc(B(O)O)cc1)c1ccc(N2CCN(CCN3CCN(c4ccc5c(c4)CN(C4CCC(=O)NC4=O)C5=O)CC3)CC2)cc1)c1ccccc1 (stereo not drawn) [Compound 62, (E)-(4-(1-(4-(4-(2-(4-(2-(2,6-dioxopiperidin-3-yl)-1-oxoisoindolin-5-yl)piperazin-1-yl)ethyl)piperazin-1-yl)phenyl)-2-phenylbut-1-en-1-yl)phenyl)boronic acid] | 0.01 to 0.05 | 0.01 to 0.05 | < 0.01 | > 90
14 | CC/C(=C(/c1ccc(B2OC(C)(C)C(C)(C)O2)cc1)c1ccc(N2CCC(CCN3CCN(c4ccc5c(c4)CN(C4CCC(=O)NC4=O)C5=O)CC3)CC2)cc1)c1ccccc1 (stereo not drawn) [Compound 10, (E)-3-(1-oxo-5-(4-(2-(1-(4-(2-phenyl-1-(4-(4,4,5,5-tetramethyl-1,3,2-dioxaborolan-2-yl)phenyl)but-1-en-1-yl)phenyl)piperidin-4-yl)ethyl)piperazin-1-yl)isoindolin-2-yl)piperidine-2,6-dione] | < 0.01 | < 0.01 | 0.01 to 0.05 | > 90
15 | CC/C(=C(/c1ccc(OCCN2CCC(CN3CCN(c4ccc5c(c4)CN([C@@H]4CCC(=O)NC4=O)C5=O)CC3)CC2)cc1)c1ccc(B(O)O)cc1)c1ccccc1 [Compound 74, (R,Z)-(4-(1-(4-(2-(4-((4-(2-(2,6-dioxopiperidin-3-yl)-1-oxoisoindolin-5-yl)piperazin-1-yl)methyl)piperidin-1-yl)ethoxy)phenyl)-2-phenylbut-1-en-1-yl)phenyl)boronic acid] | < 0.01 | < 0.01 | < 0.01 | > 90
16 | CC/C(=C(/c1ccc(B(O)O)cc1)c1ccc(N2CCC(CNC3CCN(c4ccc5c(c4)CN(C4CCC(=O)NC4=O)C5=O)CC3)CC2)cc1)c1ccccc1 (stereo not drawn) [Compound 12] | < 0.01 | < 0.01 | < 0.01 | > 90
17 | CC/C(=C(\c1ccc(B(O)O)cc1)c1ccc(N2CCN(C(=O)N3CCN(c4ccc5c(c4)CN(C4CCC(=O)NC4=O)C5=O)CC3)CC2)cc1)c1ccccc1 (stereo not drawn) [Compound 103, (Z)-(4-(1-(4-(4-(4-(2-(2,6-dioxopiperidin-3-yl)-1-oxoisoindolin-5-yl)piperazine-1-carbonyl)piperazin-1-yl)phenyl)-2-phenylbut-1-en-1-yl)phenyl)boronic acid] | < 0.01 | < 0.01 | < 0.01 | > 90
18 | CC/C(=C(/c1ccc(OCCN2CCN(CCCN3CCN(c4ccc5c(c4)C(=O)N(C4CCC(=O)NC4=O)C5=O)CC3)CC2)cc1)c1ccc(B(O)O)cc1)c1ccccc1 (stereo not drawn) [Compound 37, (Z)-(4-(1-(4-(2-(4-(3-(4-(2-(2,6-dioxopiperidin-3-yl)-1,3-dioxoisoindolin-5-yl)piperazin-1-yl)propyl)piperazin-1-yl)ethoxy)phenyl)-2-phenylbut-1-en-1-yl)phenyl)boronic acid] | 0.01 to 0.05 | 0.01 to 0.05 | < 0.01 | > 90
